Values quoted from earlier work in publication PMC3720659, “Integrated Analysis of Drug-Induced Gene Expression Profiles Predicts Novel hERG Inhibitors” (PLoS ONE, 2013).

system: hERG current; conditions: cited from earlier work

Row | Structure (SMILES) | Annotation (hERG Active / Inactive)
1 | CN1CCC(=C2c3ccccc3C=Cc3ccccc32)CC1 [cyproheptadine] | Inactive
2 | COc1cccc2c1C(=O)c1c(O)c3c(c(O)c1C2=O)C[C@@](O)(C(=O)CO)C[C@@H]3O[C@H]1C[C@H](N)[C@H](O)[C@H](C)O1 [doxorubicin] | Inactive
3 | Clc1ccc(COC(Cn2ccnc2)c2ccc(Cl)cc2Cl)cc1 (stereo not drawn) [econazole] | Inactive
4 | C[C@]12CC[C@@H]3c4ccc(O)cc4CC[C@H]3[C@@H]1CC[C@@H]2O [estradiol] | Inactive
5 | COC(=O)Nc1nc2ccc(Sc3ccccc3)cc2[nH]1 [fenbendazole] | Inactive
6 | CC(Cc1ccc(O)cc1)NCC(O)c1cc(O)cc(O)c1 (stereo not drawn) [fenoterol] | Inactive
7 | CCC1=C(C)CN(C(=O)NCCc2ccc(S(=O)(=O)NC(=O)N[C@H]3CC[C@H](C)CC3)cc2)C1=O [glimepiride] | Inactive

same assay, conditions: hERG annotation of the drug; the Cell Line (HL60, MCF7, PC3) names the expression profile, not the hERG test; cited from earlier work

Row | Structure (SMILES) | Annotation (hERG Active / Inactive)
8 | O=C1CN(/N=C/c2ccc(-c3ccc([N+](=O)[O-])cc3)o2)C(O)=N1 [dantrolene] | Inactive
9 | COc1cccc2c1C(=O)c1c(O)c3c(c(O)c1C2=O)C[C@@](O)(C(C)=O)C[C@@H]3O[C@H]1C[C@H](N)[C@H](O)[C@H](C)O1 [daunorubicin] | Inactive
10 | N=C(N)N1CCc2ccccc2C1 [debrisoquine] | Inactive
11 | CC(=O)N(O)CCCCCNC(=O)CCC(=O)N(O)CCCCCNC(=O)CCC(=O)N(O)CCCCCN [deferoxamine] | Inactive
12 | CCN1C[C@]2(COC)CC[C@H](O)[C@]34C1[C@@](O)([C@@H](OC)[C@H]23)[C@@]1(O)C[C@H](OC)[C@H]2C[C@@H]4[C@@H]1[C@H]2OC [delsoline] | Inactive
13 | CN1[C@@H]2CC[C@H]1C[C@@H](OC1c3ccccc3CCc3ccccc31)C2 [deptropine] | Inactive
14 | C[C@@H]1C[C@H]2[C@@H]3CCC4=CC(=O)C=C[C@]4(C)[C@@]3(F)[C@@H](O)C[C@]2(C)[C@@]1(O)C(=O)CO [dexamethasone] | Inactive
15 | CC1=NS(=O)(=O)c2cc(Cl)ccc2N1 [diazoxide] | Inactive
16 | Cc1onc(-c2c(Cl)cccc2Cl)c1C(=O)N[C@@H]1C(=O)N2[C@@H]1SC(C)(C)[C@@H]2C(=O)O [dicloxacillin] | Inactive
17 | C/C=C(/C(=C/C)c1ccc(O)cc1)c1ccc(O)cc1 [dienestrol] | Inactive
18 | CC(=O)OCC(=O)[C@@]1(OC(C)=O)[C@@H](C)C[C@H]2[C@@H]3C[C@H](F)C4=CC(=O)C=C[C@]4(C)[C@@]3(F)[C@@H](O)C[C@@]21C [diflorasone] | Inactive
19 | C[C@]12CC[C@H](O)C[C@H]1CC[C@@H]1[C@@H]2CC[C@]2(C)[C@@H](C3=CC(=O)OC3)CC[C@]12O [digitoxigenin] | Inactive
20 | C[C@]12CC[C@H](O)C[C@H]1CC[C@@H]1[C@@H]2C[C@@H](O)[C@]2(C)[C@@H](C3=CC(=O)OC3)CC[C@]12O [digoxigenin] | Inactive
21 | C[C@H]1O[C@@H](O[C@H]2[C@@H](O)C[C@H](O[C@H]3[C@@H](O)C[C@H](O[C@H]4CC[C@@]5(C)[C@H](CC[C@@H]6[C@@H]5C[C@@H](O)[C@]5(C)[C@@H](C7=CC(=O)OC7)CC[C@]65O)C4)O[C@@H]3C)O[C@@H]2C)C[C@H](O)[C@@H]1O [digoxin] | Inactive
22 | COc1cc(C(=O)OCCCN2CCCN(CCCOC(=O)c3cc(OC)c(OC)c(OC)c3)CC2)cc(OC)c1OC [dilazep] | Active
23 | CCCCC[C@H](O)/C=C/[C@@H]1[C@@H](C/C=C\CCCC(=O)O)[C@@H](O)C[C@H]1O [dinoprost] | Inactive
24 | CNCC(O)c1ccc(OC(=O)C(C)(C)C)c(OC(=O)C(C)(C)C)c1 (stereo not drawn) [dipivefrine] | Inactive
25 | CC[C@H]1OC(=O)[C@H](C)[C@@H](O[C@H]2C[C@@](C)(OC)[C@@H](O)[C@H](C)O2)[C@H](C)[C@@H](O[C@@H]2O[C@H](C)C[C@H](N(C)C)[C@H]2O)[C@](C)(O)C[C@@H](C)[C@@H]2N[C@@H](COCCOC)O[C@H]([C@H]2C)[C@]1(C)O [dirithromycin] | Inactive
26 | COc1cc2nc(N3CCN(C(=O)C4COc5ccccc5O4)CC3)nc(N)c2cc1OC (stereo not drawn) [doxazosin] | Inactive
27 | O=c1c2ccccc2[se]n1-c1ccccc1 [ebselen] | Inactive
28 | Cc1c2ccncc2c(C)c2c1[nH]c1ccccc12 [ellipticine] | Inactive
29 | C[C@]12CC[C@H]3C(=CCc4cc(O)ccc43)[C@@H]1CCC2=O [equilin] | Inactive
30 | C[C@]12CC[C@@H]3c4ccc(OS(=O)(=O)O)cc4CC[C@H]3[C@@H]1CCC2=O [estropipate] | Inactive
31 | CCN1C(=O)NC(c2ccccc2)C1=O (stereo not drawn) [ethotoin] | Inactive
32 | CC1CC(OC(=O)C(O)c2ccccc2)CC(C)(C)N1C (stereo not drawn) [eucatropine] | Inactive
33 | CC(C)c1c(CN(C)C(C)Cc2ccccc2)n(C)n(-c2ccccc2)c1=O (stereo not drawn) [famprofazone] | Inactive
34 | O=C(O)CCC(=O)c1ccc(-c2ccccc2)cc1 [fenbufen] | Inactive
35 | O=C1NCC2(CCN(CCc3ccccc3)CC2)O1 [fenspiride] | Inactive
36 | CC(C)(C)NC(=O)[C@H]1CC[C@H]2[C@@H]3CC[C@H]4NC(=O)C=C[C@]4(C)[C@H]3CC[C@]12C [finasteride] | Inactive

same assay, conditions: hERG inhibition annotation of the drug; the Cell Line (HL60, MCF7, PC3) is the cell line of the expression profile, not of the hERG test; cited from earlier work

Row | Structure (SMILES) | Annotation (hERG Active / Inactive)
37 | Fc1ccc(C(c2ccc(F)cc2)N2CCN(C/C=C/c3ccccc3)CC2)cc1 [flunarizine] | Inactive
38 | CC1(C)O[C@@H]2C[C@H]3[C@@H]4C[C@H](F)C5=CC(=O)C=C[C@]5(C)[C@H]4[C@@H](O)C[C@]3(C)[C@]2(C(=O)CO)O1 [flunisolide] | Inactive
39 | Cc1c(Nc2ncccc2C(=O)O)cccc1C(F)(F)F [flunixin] | Inactive
40 | CC(=O)OCC(=O)[C@@]12OC(C)(C)O[C@@H]1C[C@H]1[C@@H]3C[C@H](F)C4=CC(=O)C=C[C@]4(C)[C@@]3(F)[C@@H](O)C[C@@]12C [fluocinonide] | Inactive
41 | CC(=O)[C@@]1(O)CC[C@H]2[C@@H]3C[C@H](C)C4=CC(=O)C=C[C@]4(C)[C@@]3(F)[C@@H](O)C[C@@]21C [fluorometholone] | Inactive
42 | O=C1NCN(c2ccccc2)C12CCN(CCCC(c1ccc(F)cc1)c1ccc(F)cc1)CC2 [fluspirilene] | Active
43 | CC(C)n1c(/C=C/C(O)CC(O)CC(=O)O)c(-c2ccc(F)cc2)c2ccccc21 (stereo not drawn) [fluvastatin] | Inactive
44 | COc1cc(=O)n(C)c2c(OCC(O)C(C)(C)O)cccc12 (stereo not drawn) [foliosidine] | Inactive
45 | O=C1OC(CN2CCOCC2)CN1/N=C/c1ccc([N+](=O)[O-])o1 (stereo not drawn) [furaltadone] | Inactive
46 | CC(=O)O[C@H]1C[C@@]2(C)[C@@H](C[C@@H](O)[C@H]3[C@@]4(C)CC[C@@H](O)[C@@H](C)[C@@H]4CC[C@@]32C)/C1=C(\CCC=C(C)C)C(=O)O [fusidic acid] | Inactive
47 | NCC1(CC(=O)O)CCCCC1 [gabapentin] | Inactive
48 | CCOC(=O)c1ccc(OC(=O)CCCCCNC(=N)N)cc1 [gabexate] | Inactive
49 | Nc1nc(O)c2ncn(COC(CO)CO)c2n1 [ganciclovir] | Inactive
50 | C[C@@H]1C(=O)O[C@H]2C[C@@]34[C@H]5C[C@@H](C(C)(C)C)[C@]36[C@@H](OC(=O)[C@@H]6O)O[C@@]4(C(=O)O5)[C@]21O [ginkgolide A] | Inactive
51 | COc1ccccc1OCC(O)CO (stereo not drawn) [guaifenesin] | Inactive
52 | N=C(N)N/N=C/c1c(Cl)cccc1Cl [guanabenz] | Inactive
53 | N=C(N)NC(=O)Cc1c(Cl)cccc1Cl [guanfacine] | Inactive
54 | CC1(C)O[C@@H]2C[C@H]3[C@@H]4CCC5=CC(=O)CC[C@]5(C)[C@@]4(F)[C@@H](O)C[C@]3(C)[C@]2(C(=O)CCl)O1 [halcinonide] | Inactive
55 | COc1ccc2c3c([nH]c2c1)C(C)=NCC3 [harmaline] | Inactive
56 | COc1ccc2c(c1)[nH]c1c(C)nccc12 [harmine] | Inactive
57 | COc1ccc([C@@H]2CC(=O)c3c(O)cc(O[C@@H]4O[C@H](CO[C@@H]5O[C@@H](C)[C@H](O)[C@@H](O)[C@H]5O)[C@@H](O)[C@H](O)[C@H]4O)cc3O2)cc1O [hesperidin] | Inactive
58 | CC[C@H](c1ccc(O)cc1)[C@@H](CC)c1ccc(O)cc1 [hexestrol] | Inactive
59 | NS(=O)(=O)c1cc2c(cc1Cl)NCNS2(=O)=O [hydrochlorothiazide] | Inactive
60 | COc1c2c(cc3c1OCO3)CCN(C)C2 [hydrocotarnine] | Inactive
